For 28 molecules, IC50 results are on record in US9533983B2, “Antiplatelet agent” (Mitsubishi Tanabe Pharma Corporation, priority 2009, dated 2017).

Structures are written as SMILES.

What all share (type): cell-based
Common to all, as to conditions: Cavia porcellus, guinea pig PRP

Test [1] deals with Collagen-Induced Platelet Aggregation. Description: Platelet aggregation inhibitory activity: collagen-induced platelet aggregation in platelet rich plasma. The method, then:
(§1) A blood of a guinea pig was sampled by using a 1/10 volume of a 3.8% sodium citrate as a platelet aggregation inhibitor, and a platelet rich plasma (PRP) was separated by centrifuging the blood sample at 1100 rpm for 10 min. After fractionating the PRP in the upper layer, the lower layer was centrifuged at 3000 rpm for 10 min to fractionate the platelet poor plasma (PPP). To 100 μL of PRP, a 1 μL solution of each compound was added, and after still standing at 37° C. for 1 min, the mixture was stirred at 37° C. for 1 min by a stirrer. Then, 11 μL of collagen, ristocetin, or ADP was added thereto to induce the platelet aggregation. The platelet aggregation ability was measured by using the mCM hematolaser 313M (L-M-S Inc.). Based on the assumption that a light transmittance of PPP corresponds to a 100% coagulation value, an aggregation rate at each concentration of the compound was determined, then, an IC50 value was calculated therefrom.
[Platelet Aggregation Inhibitory Activities: Collagen-Induced Platelet Aggregation]

The test system of test [2] is Ristocetin-Induced Platelet Aggregation. Kind of test: Platelet aggregation inhibitory activity: ristocetin-induced platelet aggregation in platelet rich plasma. The method, then:
as §1
[Platelet Aggregation Inhibitory Activities: Ristocetin-Induced Platelet Aggregation]

The test system of test [3] is ADP-Induced Platelet Aggregation. Kind of test: Platelet aggregation inhibitory activity: ADP-induced platelet aggregation in platelet rich plasma. On the procedure:
as §1
[Platelet Aggregation Inhibitory Activities: ADP-Induced Platelet Aggregation]

By IC50 is commonly meant the midpoint of a concentration-inhibition curve. A low value points to inhibition by little substance. `COc1ccc(-n2c(-c3ccccn3)nc3cc(C(F)(F)F)ccc32)nn1` [Example 1, 1-(6-methoxypyridazin-3-yl)-2-pyridin-2-yl-5-(trifluoromethyl)-1H-benzimidazole]: the IC50 was 0.033 µM in test [1], 0.1 µM in test [2] and above 10 µM in test [3].
For `COc1ccc(-n2c(-c3ccccn3)nc3cc(OC(F)(F)F)ccc32)nn1` [Example 3, 1-(6-methoxypyridazin-3-yl)-2-pyridin-2-yl-5-(trifluoromethoxy)-1H-benzimidazole], in that order: 0.032 µM, 0.032 µM and above 10 µM.
As for `COc1ccc(-n2c(-c3ccc(F)cn3)nc3cc(C(F)(F)F)cnc32)cn1` [Example 4, 2-(5-fluoropyridin-2-yl)-3-(6-methoxypyridin-3-yl)-6-(trifluoromethyl)-3H-imidazo[4,5-b]pyridine], the IC50 in test [1] is 0.021 µM; in test [2], 0.024 µM; in test [3] it was above 10 µM.
For the molecule `COc1ccc(-n2c(-c3ccc(C#N)cn3)nc3cc(C(F)(F)F)ccc32)nn1` [Example 7, 6-[1-(6-methoxypyridazin-3-yl)-5-(trifluoromethyl)-1H-benzimidazole-2-yl]nicotinonitrile], the figures for the IC50 in test [1], in test [2] and in test [3] were 0.025 µM, 0.06 µM and above 10 µM, respectively.
For `COc1ccc(-n2c(-c3ccccn3)nc3cc(C(F)(F)F)cnc32)cn1` [Example 13, 3-(6-methoxypyridin-3-yl)-2-pyridin-2-yl-6-(trifluoromethyl)-3H-imidazo[4,5-b]pyridine], in that order: 0.042 µM, 0.041 µM and above 10 µM.
Take `COc1ccc(-n2c(-c3ccccn3)nc3cc(C(F)(F)F)ccc32)cn1` [Example 14, 1-(6-methoxypyridin-3-yl)-2-pyridin-2-yl-5-(trifluoromethyl)-1H-benzimidazole]: the IC50 in test [1] was 0.2 µM; in test [3] it was above 10 µM.
As to `COc1ccc(-n2c(-c3ccc(Cl)cn3)nc3cc(C(F)(F)F)ccc32)cn1` [Example 36, 2-(5-chloropyridin-2-yl)-1-(6-methoxypyridin-3-yl)-5-(trifluoromethyl)-1H-benzimidazole], the values for the IC50 in test [1], in test [2] and in test [3] were 0.049 µM, 0.18 µM and above 10 µM, respectively.
Take `COc1ccc(-n2c(-c3ccccn3)nc3cc(OC(F)(F)F)ccc32)cn1` [Example 40, 1-(6-methoxypyridin-3-yl)-2-pyridin-2-yl-5-(trifluoromethoxy)-1H-benzimidazole]: the figures for the half-inhibitory concentration (IC50) in test [1], in test [2] and in test [3] were 0.33 µM, 0.17 µM and above 10 µM, respectively.
For `COc1ccc(-n2c(-c3ccn(C)n3)nc3cc(C(F)(F)F)ccc32)nn1` [Example 52, 1-(6-methoxypyridazin-3-yl)-2-(1-methyl-1H-pyrazol-3-yl)-5-(trifluoromethyl)-1H-benzimidazole], in that order: 0.054 µM, 0.041 µM and above 10 µM.
For `COc1ccc(-n2c(-c3ccc(F)cn3)nc3cc(C(F)(F)F)ccc32)nn1` [Example 62, 2-(5-fluoropyridin-2-yl)-1-(6-methoxypyridazin-3-yl)-5-(trifluoromethyl)-1H-benzimidazole], in that order: 0.017 µM, 0.027 µM and above 10 µM.
For `COc1ccc(-n2c(-c3ccc(F)cn3)nc3cc(OC(F)(F)F)ccc32)nn1` [Example 71, 2-(5-fluoropyridin-2-yl)-1-(6-methoxypyridazin-3-yl)-5-(trifluoromethoxy)-1H-benzimidazole], in that order: 0.078 µM, 0.043 µM and above 10 µM.
In the case of `COc1ccc(-n2c(-c3cocn3)nc3cc(C(F)(F)F)ccc32)nn1` [Example 88, 1-(6-methoxypyridazin-3-yl)-2-(1,3-oxazol-4-yl)-5-(trifluoromethyl)-1H-benzimidazole], the IC50 was 0.12 µM in test [1], 0.08 µM in test [2] and above 10 µM in test [3].
For `COc1ccc(-n2c(-c3ccccn3)nc3cc(OC(F)(F)F)cnc32)cn1` [Example 147, 3-(6-methoxypyridin-3-yl)-2-pyridin-2-yl-6-(trifluoromethoxy)-3H-imidazo[4,5-b]pyridine], in that order: 0.026 µM, 0.013 µM and above 10 µM.
For `COc1cnc(-n2c(-c3coc(C)n3)nc3cc(C(F)(F)F)cnc32)cn1` [Example 152, 3-(5-methoxypyrazine-2-yl)-2-(2-methyl-1,3-oxazol-4-yl)-(trifluoromethyl)-3H-imidazo[4,5-b]pyridine], the IC50 in test [1] and in test [2] was 0.086 µM each time.
As to `COc1cnc(-n2c(-c3cc(C)on3)nc3cc(C(F)(F)F)cnc32)cn1` [Example 154, 3-(5-methoxypyrazine-2-yl)-2-(5-methylisoxazol-3-yl)-6-(trifluoromethyl)-3H-imidazo[4,5-b]pyridine], the IC50 in test [1] and in test [2] was 0.129 µM in each case.
As to `COc1ccc(-n2c(-c3cocn3)nc3cc(OC(F)(F)F)ccc32)nn1` [Example 155, 1-(6-methoxypyridazin-3-yl)-2-(1,3-oxazol-4-yl)-5-(trifluoromethoxy)-1H-benzimidazole], the IC50 in test [1] and in test [2] was 0.029 µM each time.
On to `COc1ccc(-n2c(-c3coc(C)n3)nc3cc(OC(F)(F)F)ccc32)nn1` [Example 158, 1-(6-methoxypyridazin-3-yl)-2-(2-methyl-1,3-oxazol-4-yl)-5-(trifluoromethoxy)-1H-benzimidazole], for which the IC50 in test [1] and in test [2] was 0.06 µM in each case.
Turning to `COc1ccc(-n2c(-c3ccc(Cl)cn3)nc3cc(C(F)(F)F)cnc32)cn1` [Example 159, 2-(5-chloropyridin-2-yl)-3-(6-methoxypyridin-3-yl)-6-(trifluoromethyl)-3H-imidazo[4,5-b]pyridine], the IC50 in test [1] and in test [2] was 0.028 µM each time.
With `COc1ccc(-n2c(-c3cn(C)nn3)nc3cc(C(F)(F)F)cnc32)cn1` [Example 160, 3-(6-methoxypyridin-3-yl)-2-(1-methyl-1H-1,2,3-triazol-4-yl)-6-(trifluoromethyl)-3H-imidazo[4,5-b]pyridine], the IC50 was 0.163 µM in test [1], 0.163 µM in test [2] and above 10 µM in test [3].
Take `COc1ccc(-n2c(-c3cn(C)nn3)nc3cc(OC(F)(F)F)ccc32)nn1` [Example 167, 1-(6-methoxypyridazin-3-yl)-2-(1-methyl-1H-1,2,3-triazol-4-yl)-5-(trifluoromethoxy)-1H-benzimidazole]: the results for the IC50 in test [1], in test [2] and in test [3] were 0.157 µM, 0.135 µM and above 10 µM, respectively.
In the case of `COc1cnc(-n2c(-c3cn(C)cn3)nc3cc(C(F)(F)F)cnc32)cn1` [Example 169, 3-(5-methoxypyrazine-2-yl)-2-(1-methyl-1H-imidazol-4-yl)-6-(trifluoromethyl)-3H-imidazo[4,5-b]pyridine], the IC50 in test [1] is 0.123 µM; in test [2], 0.148 µM; in test [3], above 10 µM.
Turning to `CCCOc1cnc2c(c1)nc(-c1ccccn1)n2-c1ccc(OC)nc1` [Example 173, 3-(6-methoxypyridin-3-yl)-6-propoxy-2-pyridin-2-yl-3H-imidazo[4,5-b]pyridine], the IC50 in test [1] was 0.077 µM; in test [2], 0.085 µM.
For `COc1ccc(-n2c(-c3ccccn3)nc3cc(OCC(C)C)cnc32)cn1` [Example 174, 6-isobuthoxy-3-(6-methoxypyridin-3-yl)-2-pyridin-2-yl-3H-imidazo[4,5-b]pyridine], the results for the IC50 in test [1] and in test [2] were 0.084 µM and 0.087 µM, respectively.
For `COc1ccc(-n2c(-c3ccccn3)nc3cc(OCC(F)(F)F)cnc32)cn1` [Example 175, 3-(6-methoxypyridin-3-yl)-2-pyridin-2-yl-6-(2,2,2-trifluoroethoxy)-3H-imidazo[4,5-b]pyridine], in that order: 0.075 µM and 0.075 µM.
For `COc1ccc(-n2c(-c3ccccn3)nc3cc(OC(C)C(F)(F)F)cnc32)cn1` (centres unmarked) [Example 176, 3-(6-methoxypyridin-3-yl)-2-pyridin-2-yl-6-(2,2,2-trifluoro-1-methylethoxy)-3H-imidazo[4,5-b]pyridine], in that order: 0.055 µM and 0.063 µM.
In the case of `COc1ccc(-n2c(-c3ccccn3)cc3cc(C(F)(F)F)ccc32)cn1` [Example 182, 1-(6-methoxypyridin-3-yl)-2-pyridin-2-yl-5-(trifluoromethyl)-1H-indole], the values for the IC50 in test [1] and in test [3] were 0.116 µM and above 10 µM, respectively.
For `COc1ccc(-n2c(-c3ccc(F)cn3)cc3cc(C(F)(F)F)cnc32)cn1` [Example 184, 2-(5-fluoropyridin-2-yl)-1-(6-methoxypyridin-3-yl)-5-(trifluoromethyl)-1H-pyrrolo[2,3-b]pyridine], in that order: 0.017 µM and above 10 µM.
As for `COc1ccc(-c2c3ccc(C(F)(F)F)cc3nn2-c2ccc(F)cn2)cn1` [Example 185, 2-(5-fluoropyridin-2-yl)-3-(6-methoxypyridin-3-yl)-6-(trifluoromethyl)-2H-indazole], the IC50 in test [1] was 0.07 µM; in test [3], above 10 µM.
